Reference: ChEMBL document CHEMBL5236561, “Rugonidines A-F, Diastereomeric 1,6-Dioxa-7,9-diazaspiro[4.5]dec-7-en-8-amines from the Leaves of Alchornea rugosa” (J Nat Prod, 2021)
Active and inactive are the calls of the source.

Assays:
Assay type in all cases: functional, cell-based
3T3-L1 [1] = experiment: Induction of glucose uptake in mouse 3T3-L1 cells assessed as stimulation of in 2-NBDG uptake by measuring fluorescence intensity at 5 to 20 uM incubated for 1 hr in glucose free media hr by fluorescence microscopic analysis; settings: dose 5-20 µM
3T3-L1 [2] = experiment: Induction of glucose uptake in mouse 3T3-L1 cells assessed as stimulation of in 2-NBDG uptake by measuring fluorescence intensity incubated for 1 hr in glucose free media hr by fluorescence microscopic analysis; settings: dose 5-20 µM
3T3-L1 [3] = experiment: Induction of glucose uptake in mouse 3T3-L1 cells assessed as stimulation of in 2-NBDG uptake by measuring fluorescence intensity at 20 uM incubated for 1 hr in glucose free media hr by fluorescence microscopic analysis

Measured: Activity

CC(C)=CCNC1=NO[C@@]2(CN1)Oc1cc(O)c3c(c1C2(C)C)O[C@H](c1ccc(O)c(O)c1)[C@@H](O[C@@H]1O[C@@H](C)[C@H](O)[C@@H](O)[C@H]1O)C3
active: 3T3-L1 [1] | 3T3-L1 [2] Dose-Dependent Effect | 3T3-L1 [3]

CC(C)=CCNC1=NO[C@]2(CN1)Oc1cc(O)c3c(c1C2(C)C)O[C@H](c1ccc(O)c(O)c1)[C@@H](O[C@@H]1O[C@@H](C)[C@H](O)[C@@H](O)[C@H]1O)C3
active: 3T3-L1 [1] | 3T3-L1 [2] Dose-Dependent Effect | 3T3-L1 [3]

C[C@@H]1O[C@@H](O[C@H]2Cc3c(O)cc4c(c3O[C@@H]2c2ccc(O)c(O)c2)C(C)(C)[C@@]2(CNC(N)=NO2)O4)[C@H](O)[C@H](O)[C@H]1O
active: 3T3-L1 [1] | 3T3-L1 [2] Dose-Dependent Effect | 3T3-L1 [3]
